SMILES strings stand for the structures. Some results are limits rather than exact numbers.

For this test, the target named is T1, human Cereblon WT GST-tagged protein (Homo sapiens, UniProt Q96SW2).
T1 construct: purchased CISBIO 64BDCRBNPEH
T1 sequence (Q96SW2 whole entry): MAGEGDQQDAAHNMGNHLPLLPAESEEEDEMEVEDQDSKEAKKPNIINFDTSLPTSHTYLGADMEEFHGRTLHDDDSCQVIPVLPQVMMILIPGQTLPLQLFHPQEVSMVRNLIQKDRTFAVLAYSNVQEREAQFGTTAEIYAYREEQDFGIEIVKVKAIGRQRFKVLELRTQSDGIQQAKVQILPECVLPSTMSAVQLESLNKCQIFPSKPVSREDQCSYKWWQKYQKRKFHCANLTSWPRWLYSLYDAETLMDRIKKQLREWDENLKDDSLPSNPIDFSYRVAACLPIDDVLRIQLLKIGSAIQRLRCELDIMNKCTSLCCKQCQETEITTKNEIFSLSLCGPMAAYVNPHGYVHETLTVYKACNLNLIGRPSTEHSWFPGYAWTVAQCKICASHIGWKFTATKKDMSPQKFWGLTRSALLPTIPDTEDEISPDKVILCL
In words: CRBN binding, HTRF CEREBLON BINDING kit. The settings on record: CRBN binding, HTRF CEREBLON BINDING kit. How it is done: The CEREBLON BINDING kits (specification: 10,000 tests; product number: Catalog #64BDCRBNPEH; CISBIO company) was used to determine the CRBN binding ability of the compounds to be tested through a HTRF method (homogeneous time-resolved fluorescence). The specific methods are as follows: • 1. […] Then, 2.5 μL of human Cereblon WT GST-tagged protein solution was added to each well. Finally, 5 μL of the thoroughly mixed Thalidomide-Re reagent and GST Eu antibody working solution were added to each of the aforementioned wells. […] The blank control wells were sequentially added with 2.5 μL of diluent #9 (1×) solution, 2.5 μL of binding buffer, and 5 μL of thoroughly mixed Thalidomide-Re reagent and GST Eu antibody working solution. • 4. After sealing and incubating the solutions in the aforementioned wells at room temperature for 3 hours, the absorbance values at emission wavelengths of 620 nm and 665 nm were detected by the HTRF method using a Spark microplate reader (V3.1 SP1).
The corresponding CRBN binding inhibition rate was calculated using the following method:
[formula] [formula] [formula] • Note: OD 665 nmcompound is the absorbance value of each well of the compounds to be tested of the present disclosure at an emission wavelength of 665 nm. • OD 620 nmcompound is the absorbance value of each well of the compounds to be tested of the present disclosure at an emission wavelength of 620 nm. • OD 665 nmcontrol is the absorbance value of the blank control well at an emission wavelength of 665 nm. • OD 620 nmcontrol is the absorbance value of the blank control well at an emission wavelength of 620 nm. • OD 665 nmStd0 is the absorbance value of the solvent control well at an emission wavelength of 665 nm. • OD 620 nmStd0 is the absorbance value of the solvent control well at an emission wavelength of 620 nm.
Background: TR-FRET usually uses a lanthanide donor and a delayed reading to cut background.
For `O=C1CCN(c2ccc(CN3CCC(N4CCN(c5ccc6c(c5)nc(NC(=O)c5cccc(C(F)(F)F)c5)n6[C@H]5CC[C@@H](CO)CC5)CC4)CC3)nc2)C(=O)N1` [GT-05024, N-(5-(4-(1-((5-(2,4-dioxotetrahydropyrimidin-1(2H)-yl)pyridin-2-yl)methyl)piperidin-4-yl)piperazin-1-yl)-1-((1s,4s)-4-(hydroxymethyl)cyclohexyl)-1H-benzo[d]imidazol-2-yl)-3-(trifluoromethyl)benzamide], the IC50 is 1 to 1.9 µM.
For `O=C1CCN(c2ccc(CN3CCC(n4cc(NC(=O)c5cnn6ccc(N7C[C@H]8C[C@@H]7CO8)nc56)c(C(F)F)n4)CC3)cc2)C(=O)N1` [GT-05029, 5-((1R,4R)-2-oxa-5-azabicyclo[2.2.1]heptan-5-yl)-N-(3-(difluoromethyl)-1-(1-(4-(2,4-dioxotetrahydropyrimidin-1(2H)-yl)benzyl)piperidin-4-yl)-1H-pyrazol-4-yl)pyrazolo[1,5-a]pyrimidine-3-carboxamide], the IC50 lay in the range of 0.5 to 1 µM.
The value for `O=C1CCC(c2ccc(CN3CCC(n4cc(NC(=O)c5cnn6ccc(N7C[C@H]8C[C@@H]7CO8)nc56)c(C(F)F)n4)CC3)cc2)C(=O)N1` (stereo partly drawn) [GT-05050, 5-((1R,4R)-2-oxa-5-azabicyclo[2.2.1]heptan-5-yl)-N-(3-(difluoromethyl)-1-(1-(4-(2,6-dioxopiperidin-3-yl)benzyl)piperidin-4-yl)-1H-pyrazol-4-yl)pyrazolo[1,5-a]pyrimidine-3-carboxamide] was < 0.5 µM; that for `O=C1CCN(c2cccc(CN3CCC(n4cc(NC(=O)c5cnn6ccc(N7C[C@H]8C[C@@H]7CO8)nc56)c(C(F)F)n4)CC3)c2)C(=O)N1` [GT-05051, 5-((1R,4R)-2-oxa-5-azabicyclo[2.2.1]heptan-5-yl)-N-(3-(difluoromethyl)-1-(1-(3-(2,4-dioxotetrahydropyrimidin-1(2H)-yl)benzyl)piperidin-4-yl)-1H-pyrazol-4-yl)pyrazolo[1,5-a]pyrimidine-3-carboxamide] was 0.5 to 1 µM.
In turn, `O=C1CCC(Nc2cccc(CN3CCC(n4cc(NC(=O)c5cnn6ccc(N7C[C@H]8C[C@@H]7CO8)nc56)c(C(F)F)n4)CC3)c2)C(=O)N1` (stereo partly drawn) [GT-05052, 5-((1R,4R)-2-oxa-5-azabicyclo[2.2.1]heptan-5-yl)-N-(3-(difluoromethyl)-1-(1-(3-((2,6-dioxopiperidin-3-yl)amino)benzyl)piperidin-4-yl)-1H-pyrazol-4-yl)pyrazolo[1,5-a]pyrimidine-3-carboxamide] showed a half-inhibitory concentration (IC50) of 1 to 1.9 µM.
Molecule `O=C1CCN(c2ccc(CN3CCC(n4cc(NC(=O)c5cnn6ccc(N7C[C@H]8C[C@@H]7CO8)nc56)c(C(F)F)n4)CC3)nc2)C(=O)N1` [GT-05053, 5-((1R,4R)-2-oxa-5-azabicyclo[2.2.1]heptan-5-yl)-N-(3-(difluoromethyl)-1-(1-((5-(2,4-dioxotetrahydropyrimidin-1(2H)-yl)pyridin-2-yl)methyl)piperidin-4-yl)-1H-pyrazol-4-yl)pyrazolo[1,5-a]pyrimidine-3-carboxamide] showed an IC50 of 0.5 to 1 µM.
For the molecule `Nc1nnc(-c2cc(F)ccc2O)cc1N1CCN(Cc2ccc(C3CCC(=O)NC3=O)cc2)CC1` (centres unmarked) [GT-05062, 3-(4-((4-(3-amino-6-(5-fluoro-2-hydroxyphenyl)pyridazin-4-yl)piperazin-1-yl)methyl)phenyl)piperidine-2,6-dione], the IC50 lay within 0.5 to 1 µM.
As for `O=C1CCC(c2ccc(CN3C[C@@H]4C[C@H]3CN4c3ccc(-c4cc(F)c5c(c4)C(=O)N(C(C(=O)Nc4nccs4)c4ncn6c4CCC6)C5)cc3)cc2)C(=O)N1` (stereo partly drawn) [GT-05115, 2-(6,7-dihydro-5H-pyrrolo[1,2-c]imidazol-1-yl)-2-(6-(4-((1S,4S)-5-(4-(2,6-dioxopiperidin-3-yl)benzyl)-2,5-diazabicyclo[2.2.1]heptan-2-yl)phenyl)-4-fluoro-1-oxoisoindolin-2-yl)-N-(thiazol-2-yl)acetamide], the IC50 fell in the range of 0.5 to 1 µM.
As to `O=C1CCN(c2ccc(CN3C[C@@H]4C[C@H]3CN4c3ccc(-c4cc(F)c5c(c4)C(=O)N(C(C(=O)Nc4nccs4)c4ncn6c4CCC6)C5)cc3)cc2)C(=O)N1` (stereo partly drawn) [GT-05116, 2-(6,7-dihydro-5H-pyrrolo[1,2-c]imidazol-1-yl)-2-(6-(4-((1S,4S)-5-(4-(2,4-dioxotetrahydropyrimidin-1(2H)-yl)benzyl)-2,5-diazabicyclo[2.2.1]heptan-2-yl)phenyl)-4-fluoro-1-oxoisoindolin-2-yl)-N-(thiazol-2-yl)acetamide], the IC50 lay in the range of 0.5 to 1 µM.
Consider `O=C1CCN(c2cccc(CN3C[C@@H]4C[C@H]3CN4c3ccc(-c4cc(F)c5c(c4)C(=O)N(C(C(=O)Nc4nccs4)c4ncn6c4CCC6)C5)cc3)c2)C(=O)N1` (stereo partly drawn) [GT-05117, 2-(6,7-dihydro-5H-pyrrolo[1,2-c]imidazol-1-yl)-2-(6-(4-((1S,4S)-5-(3-(2,4-dioxotetrahydropyrimidin-1(2H)-yl)benzyl)-2,5-diazabicyclo[2.2.1]heptan-2-yl)phenyl)-4-fluoro-1-oxoisoindolin-2-yl)-N-(thiazol-2-yl)acetamide], for which the IC50 lay in the range of 0.5 to 1 µM.
Molecule `O=C1CCC(Nc2cccc(CN3C[C@@H]4C[C@H]3CN4c3ccc(-c4cc(F)c5c(c4)C(=O)N(C(C(=O)Nc4nccs4)c4ncn6c4CCC6)C5)cc3)c2)C(=O)N1` (stereo partly drawn) [GT-05118, 2-(6,7-dihydro-5H-pyrrolo[1,2-c]imidazol-1-yl)-2-(6-(4-((1S,4S)-5-(3-((2,6-dioxopiperidin-3-yl)amino)benzyl)-2,5-diazabicyclo[2.2.1]heptan-2-yl)phenyl)-4-fluoro-1-oxoisoindolin-2-yl)-N-(thiazol-2-yl)acetamide] registered a concentration for half-maximal inhibition (IC50) of 0.5 to 1 µM.
`O=C1CCN(c2ccc(CN3C[C@@H]4C[C@H]3CN4c3ccc(-c4cc(F)c5c(c4)C(=O)N(C(C(=O)Nc4nccs4)c4ncn6c4CCC6)C5)cc3)nc2)C(=O)N1` (stereo partly drawn) [GT-05119, 2-(6,7-dihydro-5H-pyrrolo[1,2-c]imidazol-1-yl)-2-(6-(4-((1S,4S)-5-((5-(2,4-dioxotetrahydropyrimidin-1(2H)-yl)pyridin-2-yl)methyl)-2,5-diazabicyclo[2.2.1]heptan-2-yl)phenyl)-4-fluoro-1-oxoisoindolin-2-yl)-N-(thiazol-2-yl)acetamide] came in with an IC50 of 0.5 to 1 µM.
Next, `CN(Cc1ccc(C2CCC(=O)NC2=O)cc1)C1CCN(c2ccc(-c3cc(F)c4c(c3)C(=O)N(C(C(=O)Nc3nccs3)c3ncn5c3CCC5)C4)cc2)CC1` (centres unmarked) [GT-05218, 2-(6,7-dihydro-5H-pyrrolo[1,2-c]imidazol-1-yl)-2-(6-(4-(4-((4-(2,6-dioxopiperidin-3-yl)benzyl)(methyl)amino)piperidin-1-yl)phenyl)-4-fluoro-1-oxoisoindolin-2-yl)-N-(thiazol-2-yl)acetamide]: 0.5 to 1 µM.
Consider `CN(Cc1ccc(N2CCC(=O)NC2=O)cc1)C1CCN(c2ccc(-c3cc(F)c4c(c3)C(=O)N(C(C(=O)Nc3nccs3)c3ncn5c3CCC5)C4)cc2)CC1` (centres unmarked) [GT-05219, 2-(6,7-dihydro-5H-pyrrolo[1,2-c]imidazol-1-yl)-2-(6-(4-(4-((4-(2,4-dioxotetrahydropyrimidin-1(2H)-yl)benzyl)(methyl)amino)piperidin-1-yl)phenyl)-4-fluoro-1-oxoisoindolin-2-yl)-N-(thiazol-2-yl)acetamide], for which the IC50 was < 0.5 µM.

Usually IC50 stands for the midpoint of a concentration-inhibition curve. High values mean lower potency, low ones higher potency.

(Values after US20260274829A1, “NEW E3 UBIQUITIN LIGASE LIGAND, PROTEIN DEGRADATION AGENT AND USE THEREOF” (GLUETACS THERAPEUTICS (SHANGHAI) CO., LTD., priority 2023, published 2026).)
